# Data from ChEMBL document CHEMBL3044541, “Control of crown rot-causing fungal pathogens of banana by inorganic salts and a surfactant” (Crop Prot, 2007).
# Columns and labels:
# Colletotrichum musae [1] = test: Growth inhibition of Colletotrichum musae assessed as concentration required for inhibition of mycelial growth incubated for 15 min followed by compound washout measured after 7 days in presence of surfactant APSA 80; format: functional
# Thielaviopsis paradoxa [2] = test: Antifungal activity against Ceratocystis paradoxa infected Cavendish banana fruit assessed as reduction in crown rot incubated for 15 min followed by compound washout measured after 2 weeks in presence of surfactant APSA 80 relative to control; format: functional; design: scale not given: the % may be the effect or the level left
# Fusarium verticillioides [3] = test: Antifungal activity against Fusarium verticillioides infected Cavendish banana fruit assessed as reduction in crown rot incubated for 15 min followed by compound washout measured after 2 weeks in presence of surfactant APSA 80 relative to control; format: functional; design: scale not given: the % may be the effect or the level left
# Fusarium verticillioides [4] = test: Antifungal activity against Fusarium verticillioides assessed as reduction in colony diameter at 10 to 160 g/l incubated for 15 min followed by compound washout measured after 7 days in absence of surfactant APSA 80 relative to control; format: functional; design: scale not given: the % may be the effect or the level left
# Fusarium verticillioides [5] = test: Antifungal activity against Fusarium verticillioides infected Cavendish banana fruit assessed as reduction in crown rot incubated for 15 min followed by compound washout measured after 1 week in presence of surfactant APSA 80 relative to control; format: functional; design: scale not given: the % may be the effect or the level left
# Colletotrichum musae [6] = test: Antifungal activity against Colletotrichum musae infected Cavendish banana fruit assessed as reduction in crown rot incubated for 15 min followed by compound washout measured after 2 weeks in absence of surfactant APSA 80 relative to control; format: functional; design: scale not given: the % may be the effect or the level left
# Lasiodiplodia theobromae [7] = test: Antifungal activity against Lasiodiplodia theobromae infected Cavendish banana fruit assessed as reduction in crown rot incubated for 15 min followed by compound washout measured after 1 week in absence of surfactant APSA 80 relative to control; format: functional; design: scale not given: the % may be the effect or the level left
# Thielaviopsis paradoxa [8] = test: Antifungal activity against Ceratocystis paradoxa assessed as reduction in colony diameter at 10 to 160 g/l incubated for 15 min followed by compound washout measured after 7 days in presence of surfactant APSA 80 relative to control; format: functional; design: scale not given: the % may be the effect or the level left
# Fusarium verticillioides [9] = test: Antifungal activity against Fusarium verticillioides infected Cavendish banana fruit assessed as reduction in crown rot incubated for 15 min followed by compound washout measured after 1 week in absence of surfactant APSA 80 relative to control; format: functional; design: scale not given: the % may be the effect or the level left
# Thielaviopsis paradoxa [10] = test: Antifungal activity against Ceratocystis paradoxa assessed as reduction in colony diameter at 10 to 160 g/l incubated for 15 min followed by compound washout measured after 7 days in absence of surfactant APSA 80 relative to control; format: functional; design: scale not given: the % may be the effect or the level left
# Fusarium verticillioides [11] = test: Antifungal activity against Fusarium verticillioides assessed as reduction in colony diameter at 10 to 160 g/l incubated for 15 min followed by compound washout measured after 7 days in presence of surfactant APSA 80 relative to control; format: functional; design: scale not given: the % may be the effect or the level left
# Colletotrichum musae [12] = test: Antifungal activity against Colletotrichum musae assessed as reduction in colony diameter at 10 to 160 g/l incubated for 15 min followed by compound washout measured after 7 days in presence of surfactant APSA 80 relative to control; format: functional; design: scale not given: the % may be the effect or the level left
# Musa acuminata AAA Group [13] = test: Phytotoxicity against Musa acuminata AAA Group (Cavendish banana) assessed as discoloration incubated for 15 min followed by compound washout measured after 1 to 3 weeks in presence of surfactant APSA 80 relative to control; format: organism-based; conditions: in vivo
# Lasiodiplodia theobromae [14] = test: Antifungal activity against Lasiodiplodia theobromae infected Cavendish banana fruit assessed as reduction in crown rot incubated for 15 min followed by compound washout measured after 2 weeks in absence of surfactant APSA 80 relative to control; format: functional; design: scale not given: the % may be the effect or the level left
# Lasiodiplodia theobromae [15] = test: Antifungal activity against Lasiodiplodia theobromae infected Cavendish banana fruit assessed as reduction in crown rot incubated for 15 min followed by compound washout measured after 2 weeks in presence of surfactant APSA 80 relative to control; format: functional; design: scale not given: the % may be the effect or the level left
# Colletotrichum musae [16] = test: Antifungal activity against Colletotrichum musae infected Cavendish banana fruit assessed as reduction in crown rot incubated for 15 min followed by compound washout measured after 1 week in presence of surfactant APSA 80 relative to control; format: functional; design: scale not given: the % may be the effect or the level left
# Lasiodiplodia theobromae [17] = test: Antifungal activity against Lasiodiplodia theobromae infected Cavendish banana fruit assessed as reduction in crown rot incubated for 15 min followed by compound washout measured after 1 week in presence of surfactant APSA 80 relative to control; format: functional; design: scale not given: the % may be the effect or the level left
# Lasiodiplodia theobromae [18] = test: Growth inhibition of Lasiodiplodia theobromae assessed as concentration required for inhibition of mycelial growth incubated for 15 min followed by compound washout measured after 7 days in presence of surfactant APSA 80; format: functional
# Colletotrichum musae [19] = test: Antifungal activity against Colletotrichum musae assessed as reduction in colony diameter at 10 to 160 g/l incubated for 15 min followed by compound washout measured after 7 days in absence of surfactant APSA 80 relative to control; format: functional; design: scale not given: the % may be the effect or the level left
# Musa acuminata AAA Group [20] = test: Phytotoxicity against Musa acuminata AAA Group (Cavendish banana) assessed as skin burn incubated for 15 min followed by compound washout measured after 1 to 3 weeks in presence of surfactant APSA 80 relative to control; format: organism-based; conditions: in vivo
# Thielaviopsis paradoxa [21] = test: Antifungal activity against Ceratocystis paradoxa infected Cavendish banana fruit assessed as reduction in crown rot incubated for 15 min followed by compound washout measured after 1 week in absence of surfactant APSA 80 relative to control; format: functional; design: scale not given: the % may be the effect or the level left
# Lasiodiplodia theobromae [22] = test: Antifungal activity against Lasiodiplodia theobromae assessed as reduction in colony diameter at 10 to 160 g/l incubated for 15 min followed by compound washout measured after 7 days in presence of surfactant APSA 80 relative to control; format: functional; design: scale not given: the % may be the effect or the level left
# Thielaviopsis paradoxa [23] = test: Antifungal activity against Ceratocystis paradoxa infected Cavendish banana fruit assessed as reduction in crown rot incubated for 15 min followed by compound washout measured after 1 week in presence of surfactant APSA 80 relative to control; format: functional; design: scale not given: the % may be the effect or the level left
# Fusarium verticillioides [24] = test: Antifungal activity against Fusarium verticillioides infected Cavendish banana fruit assessed as reduction in crown rot incubated for 15 min followed by compound washout measured after 3 weeks in presence of surfactant APSA 80 relative to control; format: functional; design: scale not given: the % may be the effect or the level left; conditions: pooled result: one value given for 4 cell lines, strains, targets or settings
# Lasiodiplodia theobromae [25] = test: Growth inhibition of Lasiodiplodia theobromae assessed as concentration required for inhibition of mycelial growth incubated for 15 min followed by compound washout measured after 7 days in absence of surfactant APSA 80; format: functional
# Fusarium verticillioides [26] = test: Antifungal activity against Fusarium verticillioides infected Cavendish banana fruit assessed as reduction in crown rot incubated for 15 min followed by compound washout measured after 2 weeks in absence of surfactant APSA 80 relative to control; format: functional; design: scale not given: the % may be the effect or the level left
# Thielaviopsis paradoxa [27] = test: Antifungal activity against Ceratocystis paradoxa infected Cavendish banana fruit assessed as reduction in crown rot incubated for 15 min followed by compound washout measured after 2 weeks in absence of surfactant APSA 80 relative to control; format: functional; design: scale not given: the % may be the effect or the level left
# Colletotrichum musae [28] = test: Antifungal activity against Colletotrichum musae infected Cavendish banana fruit assessed as reduction in crown rot incubated for 15 min followed by compound washout measured after 2 weeks in presence of surfactant APSA 80 relative to control; format: functional; design: scale not given: the % may be the effect or the level left
# Fusarium verticillioides [29] = test: Antifungal activity against Fusarium verticillioides infected Cavendish banana fruit assessed as reduction in crown rot incubated for 15 min followed by compound washout measured after 3 weeks in absence of surfactant APSA 80 relative to control; format: functional; design: scale not given: the % may be the effect or the level left; conditions: pooled result: one value given for 4 cell lines, strains, targets or settings
# Lasiodiplodia theobromae [30] = test: Antifungal activity against Lasiodiplodia theobromae assessed as reduction in colony diameter at 10 to 160 g/l incubated for 15 min followed by compound washout measured after 7 days in absence of surfactant APSA 80 relative to control; format: functional; design: scale not given: the % may be the effect or the level left
# Colletotrichum musae [31] = test: Antifungal activity against Colletotrichum musae infected Cavendish banana fruit assessed as reduction in crown rot incubated for 15 min followed by compound washout measured after 1 week in absence of surfactant APSA 80 relative to control; format: functional; design: scale not given: the % may be the effect or the level left
SMILES,Activity (Thielaviopsis paradoxa [2]),Activity (Fusarium verticillioides [3]),Activity (Fusarium verticillioides [4]),Activity (Fusarium verticillioides [5]),Activity (Colletotrichum musae [6]),Activity (Lasiodiplodia theobromae [7]),Activity (Thielaviopsis paradoxa [8]),Activity (Fusarium verticillioides [9]),Activity (Thielaviopsis paradoxa [10]),Activity (Fusarium verticillioides [11]),Activity (Colletotrichum musae [12]),Activity (Lasiodiplodia theobromae [14]),Activity (Lasiodiplodia theobromae [15]),Activity (Colletotrichum musae [16]),Activity (Lasiodiplodia theobromae [17]),Activity (Lasiodiplodia theobromae [18]),Activity (Colletotrichum musae [19]),Activity (Thielaviopsis paradoxa [21]),Activity (Lasiodiplodia theobromae [22]),Activity (Thielaviopsis paradoxa [23]),other results
O=C([O-])[O-].[Na+].[Na+] [SODIUM CARBONATE],25%,25%,29%,0%,0%,0%,85%,0%,63%,75%,87%,0%,25%,0%,0%,40 g/L,40%,0%,91%,0%,Activity (Colletotrichum musae [1]): 80 g/L; Activity (Musa acuminata AAA Group [13]): Toxic; Activity (Musa acuminata AAA Group [20]): Toxic; Activity (Fusarium verticillioides [24]): 65%; Activity (Lasiodiplodia theobromae [25]): 150 g/L; Activity (Fusarium verticillioides [26]): 0%; Activity (Thielaviopsis paradoxa [27]): 0%; Activity (Colletotrichum musae [28]): 25%; Activity (Fusarium verticillioides [29]): 35%; Activity (Lasiodiplodia theobromae [30]): 54%; Activity (Colletotrichum musae [31]): 0%
O=C([O-])O.[Na+] [SODIUM BICARBONATE],0%,0%,0%,0%,25%,0%,76%,0%,36%,50%,80%,25%,0%,0%,0%,100 g/L,18%,0%,72%,0%,Activity (Fusarium verticillioides [24]): 12%; Activity (Lasiodiplodia theobromae [25]): 150 g/L; Activity (Fusarium verticillioides [26]): 25%; Activity (Thielaviopsis paradoxa [27]): 25%; Activity (Colletotrichum musae [28]): 0%; Activity (Fusarium verticillioides [29]): 58%; Activity (Lasiodiplodia theobromae [30]): 46%; Activity (Colletotrichum musae [31]): 0%
